What was measured:
Experiment in all cases: relative viability (nuclei count vs DMSO), 5 days (fraction); higher = more cells survive
Shikonin + Palbociclib = compound: CC(C)=CC[C@@H](O)C1=CC(=O)c2c(O)ccc(O)c2C1=O [Shikonin] + CC(=O)c1c(C)c2cnc(Nc3ccc(N4CCNCC4)cn3)nc2n(C2CCCC2)c1=O [Palbociclib] (partner 0.5 µM)
Summary of the method: (§1)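 Cells from lung cancer lines were seeded into 1536-well plates and, one day later, dosed by pin tool. Treatments were either a single drug or a fixed dose of an anchor drug with five library-drug doses (not always all listed) in √10 steps. After 5 days, nuclei were stained in a one-step fixation (final 0.05% Triton X-100, 1% formaldehyde, 1 ug/ml Hoechst) and counted on 4× images, and relative viability is the treated-to-vehicle nuclei ratio, as the median of duplicate plates.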

Shikonin + Crizotinib = compound: CC(C)=CC[C@@H](O)C1=CC(=O)c2c(O)ccc(O)c2C1=O [Shikonin] + C[C@@H](Oc1cc(-c2cnn(C3CCNCC3)c2)cnc1N)c1c(Cl)ccc(F)c1Cl [Crizotinib] (partner 1 µM)
Summary of the method: as §1

[1] = compound: CC(C)N(CCCNC(=O)Nc1ccc(C(C)(C)C)cc1)C[C@H]1O[C@@H](n2ccc3c(N)ncnc32)[C@H](O)[C@@H]1O + CC(C)C[C@H](NC(=O)[C@H](Cc1ccccc1)NC(=O)c1cnccn1)B(O)O [Bortezomib] (partner 0.002 µM)
Summary of the method: as §1

[2] = compound: CC(C)N(CCCNC(=O)Nc1ccc(C(C)(C)C)cc1)C[C@H]1O[C@@H](n2ccc3c(N)ncnc32)[C@H](O)[C@@H]1O + O=C(CCCCCCC(=O)Nc1ccccc1)NO [Vorinostat] (partner 1 µM)
Summary of the method: as §1

NCI-H23
relative viability (Shikonin + Palbociclib; first compound 0.01 µM): 0.597
relative viability (Shikonin + Palbociclib; first compound 0.1 µM): 0.543
relative viability (Shikonin + Palbociclib; first compound 0.3162 µM): 0.623
relative viability (Shikonin + Palbociclib; first compound 1 µM): 0.573
relative viability (Shikonin + Crizotinib; first compound 0.01 µM): 0.576
relative viability (Shikonin + Crizotinib; first compound 0.1 µM): 0.489
relative viability (Shikonin + Crizotinib; first compound 0.3162 µM): 0.515
relative viability (Shikonin + Crizotinib; first compound 1 µM): 0.502
relative viability ([1]; first compound 0.08 µM): 0.837
relative viability ([1]; first compound 0.8 µM): 0.523
relative viability ([1]; first compound 2.53 µM): 0.94
relative viability ([1]; first compound 8 µM): 1.17
relative viability ([2]; first compound 0.08 µM): 0.582
relative viability ([2]; first compound 0.8 µM): 0.557
relative viability ([2]; first compound 2.53 µM): 0.639
relative viability ([2]; first compound 8 µM): 0.549

NCI-H322M
relative viability (Shikonin + Palbociclib; first compound 0.01 µM): 0.479
relative viability (Shikonin + Palbociclib; first compound 0.1 µM): 0.446
relative viability (Shikonin + Palbociclib; first compound 0.3162 µM): 0.477
relative viability (Shikonin + Palbociclib; first compound 1 µM): 0.489
relative viability (Shikonin + Crizotinib; first compound 0.01 µM): 0.866
relative viability (Shikonin + Crizotinib; first compound 0.1 µM): 0.997
relative viability (Shikonin + Crizotinib; first compound 0.3162 µM): 0.855
relative viability (Shikonin + Crizotinib; first compound 1 µM): 0.882
relative viability ([1]; first compound 0.08 µM): 1.11
relative viability ([1]; first compound 0.253 µM): 1.13
relative viability ([1]; first compound 0.8 µM): 1.12
relative viability ([1]; first compound 2.53 µM): 1.39
relative viability ([1]; first compound 8 µM): 1.38
relative viability ([2]; first compound 0.08 µM): 0.891
relative viability ([2]; first compound 0.253 µM): 0.899
relative viability ([2]; first compound 0.8 µM): 0.805
relative viability ([2]; first compound 2.53 µM): 0.842
relative viability ([2]; first compound 8 µM): 0.912

NCI-H441
relative viability (Shikonin + Palbociclib; first compound 0.01 µM): 0.225
relative viability (Shikonin + Palbociclib; first compound 0.1 µM): 0.219
relative viability (Shikonin + Palbociclib; first compound 0.3162 µM): 0.225
relative viability (Shikonin + Palbociclib; first compound 1 µM): 0.231
relative viability (Shikonin + Crizotinib; first compound 0.01 µM): 0.921
relative viability (Shikonin + Crizotinib; first compound 0.1 µM): 0.782
relative viability (Shikonin + Crizotinib; first compound 0.3162 µM): 0.887
relative viability (Shikonin + Crizotinib; first compound 1 µM): 0.771
relative viability ([1]; first compound 0.253 µM): 0.488
relative viability ([1]; first compound 0.8 µM): 0.144
relative viability ([1]; first compound 2.53 µM): 0.875
relative viability ([1]; first compound 8 µM): 0.819
relative viability ([2]; first compound 0.08 µM): 0.811
relative viability ([2]; first compound 0.253 µM): 0.641
relative viability ([2]; first compound 2.53 µM): 0.784
relative viability ([2]; first compound 8 µM): 0.654

NCI-H460
relative viability (Shikonin + Palbociclib; first compound 0.01 µM): 0.166
relative viability (Shikonin + Palbociclib; first compound 0.1 µM): 0.227
relative viability (Shikonin + Palbociclib; first compound 0.3162 µM): 0.2
relative viability (Shikonin + Palbociclib; first compound 1 µM): 0.222
relative viability (Shikonin + Crizotinib; first compound 0.01 µM): 1.37
relative viability (Shikonin + Crizotinib; first compound 0.1 µM): 1.38
relative viability (Shikonin + Crizotinib; first compound 0.3162 µM): 1.26
relative viability (Shikonin + Crizotinib; first compound 1 µM): 0.884
relative viability ([1]; first compound 0.08 µM): 0.967
relative viability ([1]; first compound 0.253 µM): 1.3
relative viability ([1]; first compound 0.8 µM): 1.2
relative viability ([1]; first compound 2.53 µM): 1.15
relative viability ([1]; first compound 8 µM): 1.13
relative viability ([2]; first compound 0.08 µM): 0.719
relative viability ([2]; first compound 0.253 µM): 0.727
relative viability ([2]; first compound 0.8 µM): 0.746
relative viability ([2]; first compound 2.53 µM): 0.701
relative viability ([2]; first compound 8 µM): 0.734

NCI-H520
relative viability (Shikonin + Palbociclib; first compound 0.01 µM): 0.191
relative viability (Shikonin + Palbociclib; first compound 0.1 µM): 0.206
relative viability (Shikonin + Palbociclib; first compound 0.3162 µM): 0.229
relative viability (Shikonin + Palbociclib; first compound 1 µM): 0.208
relative viability (Shikonin + Crizotinib; first compound 0.1 µM): 0.878
relative viability (Shikonin + Crizotinib; first compound 0.3162 µM): 0.608
relative viability (Shikonin + Crizotinib; first compound 1 µM): 0.842
relative viability ([1]; first compound 0.08 µM): 0.581
relative viability ([1]; first compound 0.253 µM): 0.179
relative viability ([1]; first compound 0.8 µM): 0.155
relative viability ([1]; first compound 2.53 µM): 0.647
relative viability ([1]; first compound 8 µM): 0.524
relative viability ([2]; first compound 0.08 µM): 0.849
relative viability ([2]; first compound 0.253 µM): 0.711
relative viability ([2]; first compound 0.8 µM): 0.801
relative viability ([2]; first compound 2.53 µM): 0.753
relative viability ([2]; first compound 8 µM): 0.843

NCI-H647
relative viability (Shikonin + Palbociclib; first compound 0.01 µM): 0.487
relative viability (Shikonin + Palbociclib; first compound 0.1 µM): 0.325
relative viability (Shikonin + Palbociclib; first compound 0.3162 µM): 0.38
relative viability (Shikonin + Palbociclib; first compound 1 µM): 0.361
relative viability (Shikonin + Crizotinib; first compound 0.01 µM): 1.13
relative viability (Shikonin + Crizotinib; first compound 0.1 µM): 1.29
relative viability (Shikonin + Crizotinib; first compound 0.3162 µM): 0.931
relative viability (Shikonin + Crizotinib; first compound 1 µM): 1.01
relative viability ([1]; first compound 0.08 µM): 0.761
relative viability ([1]; first compound 0.8 µM): 0.2
relative viability ([1]; first compound 2.53 µM): 0.821
relative viability ([1]; first compound 8 µM): 0.809
relative viability ([2]; first compound 0.08 µM): 0.415
relative viability ([2]; first compound 0.253 µM): 0.549
relative viability ([2]; first compound 0.8 µM): 0.472
relative viability ([2]; first compound 2.53 µM): 0.598
relative viability ([2]; first compound 8 µM): 0.518

NCI-H650
relative viability (Shikonin + Palbociclib; first compound 0.01 µM): 0.325
relative viability (Shikonin + Palbociclib; first compound 0.1 µM): 0.314
relative viability (Shikonin + Palbociclib; first compound 0.3162 µM): 0.334
relative viability (Shikonin + Palbociclib; first compound 1 µM): 0.34
relative viability (Shikonin + Crizotinib; first compound 0.01 µM): 0.818
relative viability (Shikonin + Crizotinib; first compound 0.3162 µM): 0.643
relative viability (Shikonin + Crizotinib; first compound 1 µM): 0.804
relative viability ([1]; first compound 0.08 µM): 0.785
relative viability ([1]; first compound 0.253 µM): 0.598
relative viability ([1]; first compound 0.8 µM): 0.773
relative viability ([1]; first compound 2.53 µM): 0.682
relative viability ([1]; first compound 8 µM): 0.796
relative viability ([2]; first compound 0.08 µM): 0.414
relative viability ([2]; first compound 0.253 µM): 0.444
relative viability ([2]; first compound 0.8 µM): 0.459
relative viability ([2]; first compound 2.53 µM): 0.426
relative viability ([2]; first compound 8 µM): 0.401

NCI-H661
relative viability (Shikonin + Palbociclib; first compound 0.01 µM): 0.405
relative viability (Shikonin + Palbociclib; first compound 0.1 µM): 0.395
relative viability (Shikonin + Palbociclib; first compound 0.3162 µM): 0.426
relative viability (Shikonin + Palbociclib; first compound 1 µM): 0.4
relative viability (Shikonin + Crizotinib; first compound 0.01 µM): 1.24
relative viability (Shikonin + Crizotinib; first compound 0.1 µM): 1.11
relative viability (Shikonin + Crizotinib; first compound 0.3162 µM): 0.967
relative viability (Shikonin + Crizotinib; first compound 1 µM): 0.957
relative viability ([1]; first compound 0.08 µM): 0.63
relative viability ([1]; first compound 0.253 µM): 0.753
relative viability ([1]; first compound 0.8 µM): 0.625
relative viability ([1]; first compound 2.53 µM): 0.747
relative viability ([1]; first compound 8 µM): 0.719
relative viability ([2]; first compound 0.08 µM): 0.77
relative viability ([2]; first compound 0.253 µM): 0.834
relative viability ([2]; first compound 0.8 µM): 0.812
relative viability ([2]; first compound 2.53 µM): 0.809
relative viability ([2]; first compound 8 µM): 0.785
